Test system: MV-4-11 cells
Assay: Gene expression microarray analysis (Affymetrix PrimeView) and GSEA
Assay type: cell-based, human
Set-up: RFU PODN (11730768_x_at) / Fold change /veh PODN (11730768_x_at) / RFU LINC00158 (11744669_a_at) / Fold change /veh LINC00158 (11744669_a_at) / RFU DUSP10 (11751237_a_at) / Fold change /veh DUSP10 (11751237_a_at) / RFU ID3 (11757404_x_at) / Fold change /veh ID3 (11757404_x_at) / RFU PLEKHG5 (11737974_s_at) / Fold change /veh PLEKHG5 (11737974_s_at) / RFU LRRC4B (11730491_at) / Fold change /veh LRRC4B (11730491_at) / RFU GIMAP4 (11747438_a_at) / Fold change /veh GIMAP4 (11747438_a_at) / RFU KRT8 (11758183_x_at) / Fold change /veh KRT8 (11758183_x_at) / RFU CNN1 (11734310_a_at) / Fold change /veh CNN1 (11734310_a_at) / RFU VPS37D (11726825_at) / Fold change /veh VPS37D (11726825_at) / RFU C10orf10 (11716522_x_at) / Fold change /veh C10orf10 (11716522_x_at) / RFU KIR2DL2 /// KIR2DL4 /// KIR2DL5A /// KIR2DL5B /// KIR2DS1 /// KIR2DS2 /// KIR2DS3 /// KIR2DS4 /// KIR3DL3 /// KIR3DL3 /// KIR3DS1 (11738374_at) / Fold change /veh KIR2DL2 /// KIR2DL4 /// KIR2DL5A /// KIR2DL5B /// KIR2DS1 /// KIR2DS2 /// KIR2DS3 /// KIR2DS4 /// KIR3DL3 /// KIR3DL3 /// KIR3DS1 (11738374_at) / RFU C1QL1 (11718748_at) / Fold change /veh C1QL1 (11718748_at) / RFU TMPRSS4 (11747572_a_at) / Fold change /veh TMPRSS4 (11747572_a_at) / RFU HAMP (11756126_x_at) / Fold change /veh HAMP (11756126_x_at) / RFU RNFT2 (11725882_a_at) / Fold change /veh RNFT2 (11725882_a_at) / RFU NR4A2 (11747474_a_at) / Fold change /veh NR4A2 (11747474_a_at) / RFU ABCC12 (11746883_a_at) / Fold change /veh ABCC12 (11746883_a_at) / RFU TMEM136 (11760407_x_at) / Fold change /veh TMEM136 (11760407_x_at) / RFU CLDN22 /// WWC2 (11732394_at) / Fold change /veh CLDN22 /// WWC2 (11732394_at) / RFU HLA-DPB1 (11760878_x_at) / Fold change /veh HLA-DPB1 (11760878_x_at) / RFU SPINT1 (11716480_a_at) / Fold change /veh SPINT1 (11716480_a_at) / RFU GAP43 (11754022_s_at) / Fold change /veh GAP43 (11754022_s_at) / RFU A4GNT (11735810_at) / Fold change /veh A4GNT (11735810_at) / RFU PRB3 (11715151_x_at) / Fold change /veh PRB3 (11715151_x_at) / RFU TUBB4B (11761932_at) / Fold change /veh TUBB4B (11761932_at) / RFU CAPN14 (11732068_a_at) / Fold change /veh CAPN14 (11732068_a_at) / RFU TMCC2 (11721928_a_at) / Fold change /veh TMCC2 (11721928_a_at) / RFU IRGQ (11745062_a_at) / Fold change /veh IRGQ (11745062_a_at) / RFU FAM174B (11720279_a_at) / Fold change /veh FAM174B (11720279_a_at) / RFU TMPRSS4 (11748680_a_at) / Fold change /veh TMPRSS4 (11748680_a_at) / RFU FAM212B (11763350_a_at) / Fold change /veh FAM212B (11763350_a_at) / RFU PLEKHG5 (11743358_a_at) / Fold change /veh PLEKHG5 (11743358_a_at) / RFU ZSCAN30 (11745921_a_at) / Fold change /veh ZSCAN30 (11745921_a_at) / RFU CMKLR1 (11741424_a_at) / Fold change /veh CMKLR1 (11741424_a_at) / RFU LOC101060620 /// MAPK8IP1 (11723275_at) / Fold change /veh LOC101060620 /// MAPK8IP1 (11723275_at) / RFU SPTSSB (11747773_x_at) / Fold change /veh SPTSSB (11747773_x_at) / RFU PRSS12 (11739890_at) / Fold change /veh PRSS12 (11739890_at) / RFU BIN1 (11741810_x_at) / Fold change /veh BIN1 (11741810_x_at) / RFU WNT11 (11732464_a_at) / Fold change /veh WNT11 (11732464_a_at) / RFU C10orf10 (11716521_a_at) / Fold change /veh C10orf10 (11716521_a_at) / RFU C5orf56 (11738089_at) / Fold change /veh C5orf56 (11738089_at) / RFU CYB561 (11721691_x_at) / Fold change /veh CYB561 (11721691_x_at) / RFU ANKRD19P (11752326_a_at) / Fold change /veh ANKRD19P (11752326_a_at) / RFU OR2T12 /// OR2T33 /// OR2T8 (11738714_s_at) / Fold change /veh OR2T12 /// OR2T33 /// OR2T8 (11738714_s_at) / RFU VCAN (11748164_a_at) / Fold change /veh VCAN (11748164_a_at) / RFU JSRP1 (11732532_at) / Fold change /veh JSRP1 (11732532_at) / RFU KRTAP10-11 (11738290_x_at) / Fold change /veh KRTAP10-11 (11738290_x_at) / RFU MYO3A (11730013_a_at) / Fold change /veh MYO3A (11730013_a_at) / RFU EBF3 (11725865_a_at) / Fold change /veh EBF3 (11725865_a_at) / RFU CAMK2N1 (11719241_x_at) / Fold change /veh CAMK2N1 (11719241_x_at) / RFU C5orf56 (11738088_a_at) / Fold change /veh C5orf56 (11738088_a_at) / RFU OLFML3 (11715873_a_at) / Fold change /veh OLFML3 (11715873_a_at) / RFU LOC100653217 /// NTM (11731650_a_at) / Fold change /veh LOC100653217 /// NTM (11731650_a_at) / RFU MAPK11 (11762145_a_at) / Fold change /veh MAPK11 (11762145_a_at) / RFU FIZ1 (11724087_x_at) / Fold change /veh FIZ1 (11724087_x_at) / RFU OASL (11726364_x_at) / Fold change /veh OASL (11726364_x_at) / RFU SOX15 (11748057_x_at) / Fold change /veh SOX15 (11748057_x_at) / RFU CD79A (11719716_a_at) / Fold change /veh CD79A (11719716_a_at) / RFU HIST1H1D (11736915_at) / Fold change /veh HIST1H1D (11736915_at) / RFU CASKIN2 (11723855_a_at) / Fold change /veh CASKIN2 (11723855_a_at) / RFU LOC730098 (11760151_x_at) / Fold change /veh LOC730098 (11760151_x_at) / RFU OR4N2 (11742367_at) / Fold change /veh OR4N2 (11742367_at) / RFU PRRT2 (11749266_a_at) / Fold change /veh PRRT2 (11749266_a_at) / RFU SNX32 (11753110_a_at) / Fold change /veh SNX32 (11753110_a_at) / RFU CDHR5 (11726645_a_at) / Fold change /veh CDHR5 (11726645_a_at) / RFU RCAN1 (11760418_a_at) / Fold change /veh RCAN1 (11760418_a_at) / RFU FAM167A (11723789_a_at) / Fold change /veh FAM167A (11723789_a_at) / RFU FAM26E (11764081_at) / Fold change /veh FAM26E (11764081_at) / RFU ISYNA1 (11749810_s_at) / Fold change /veh ISYNA1 (11749810_s_at) / RFU ACY1 (11761880_at) / Fold change /veh ACY1 (11761880_at) / RFU 11764098_at / Fold change /veh 11764098_at / RFU SAMD14 (11745864_x_at) / Fold change /veh SAMD14 (11745864_x_at) / RFU NPB (11741838_a_at) / Fold change /veh NPB (11741838_a_at) / RFU TMPRSS6 (11731388_a_at) / Fold change /veh TMPRSS6 (11731388_a_at) / RFU KRTAP10-2 (11738614_at) / Fold change /veh KRTAP10-2 (11738614_at) / RFU ARHGAP8 /// PRR5-ARHGAP8 (11727945_x_at) / Fold change /veh ARHGAP8 /// PRR5-ARHGAP8 (11727945_x_at) / RFU KRTAP5-7 /// NADSYN1 (11734609_at) / Fold change /veh KRTAP5-7 /// NADSYN1 (11734609_at) / RFU RASL12 (11751679_a_at) / Fold change /veh RASL12 (11751679_a_at) / RFU CDKN2B (11736163_a_at) / Fold change /veh CDKN2B (11736163_a_at) / RFU PRF1 (11729649_at) / Fold change /veh PRF1 (11729649_at) / RFU, ZNF638 /// ZNF638-IT1 / Fold change vs veh, ZNF638 /// ZNF638-IT1 / RFU, PANK3 / Fold change vs veh, PANK3 / RFU, SH3YL1 / Fold change vs veh, SH3YL1 / RFU, ZEB2 / Fold change vs veh, ZEB2 / RFU, NRIP1 / Fold change vs veh, NRIP1 / RFU, PTTG1IP / Fold change vs veh, PTTG1IP / RFU, CAPN2 / Fold change vs veh, CAPN2 / RFU, MED14 / Fold change vs veh, MED14 / RFU, SNORA58 / Fold change vs veh, SNORA58 / RFU, C1orf63 / Fold change vs veh, C1orf63 / RFU, LRRFIP1 / Fold change vs veh, LRRFIP1 / RFU, NDUFAF7 / Fold change vs veh, NDUFAF7 / RFU, SLC12A2 / Fold change vs veh, SLC12A2 / RFU, IBTK / Fold change vs veh, IBTK / RFU, ESF1 / Fold change vs veh, ESF1 / Fold change vs veh, TMEM50B / RFU, TAOK1 / Fold change vs veh, TAOK1 / RFU, ACBD3 / Fold change vs veh, ACBD3 / RFU, TMA16 / Fold change vs veh, TMA16 / RFU, RWDD3 / Fold change vs veh, RWDD3 / RFU, BCAT1 / Fold change vs veh, BCAT1 / RFU, EDEM3 / Fold change vs veh, EDEM3 / RFU, TMEM33 / Fold change vs veh, TMEM33 / RFU, WDR75 / Fold change vs veh, WDR75 / RFU, AHCTF1 / Fold change vs veh, AHCTF1 / RFU, TFRC / Fold change vs veh, TFRC / RFU, ZDHHC17 / Fold change vs veh, ZDHHC17 / RFU, NOM1 / Fold change vs veh, NOM1 / RFU, ARL8B / Fold change vs veh, ARL8B / RFU, ZBTB11 / Fold change vs veh, ZBTB11 / RFU, TAMM41 / Fold change vs veh, TAMM41 / RFU, KIAA1704 /// LOC100996395 / Fold change vs veh, KIAA1704 /// LOC100996395 / RFU, ING1 / Fold change vs veh, ING1 / RFU, TRMT61B / Fold change vs veh, TRMT61B / RFU, FUBP3 / Fold change vs veh, FUBP3 / RFU, TP53 / Fold change vs veh, TP53 / RFU, TNKS2 / Fold change vs veh, TNKS2 / RFU, ZFP14 / Fold change vs veh, ZFP14 / RFU, ACTR2 / Fold change vs veh, ACTR2 / RFU, PPP3R1 / Fold change vs veh, PPP3R1 / RFU, PIK3R1 / Fold change vs veh, PIK3R1 / RFU, HNRNPA1 / Fold change vs veh, HNRNPA1 / RFU, RNF170 / Fold change vs veh, RNF170 / RFU, ZNF28 / Fold change vs veh, ZNF28 / RFU, RNGTT / Fold change vs veh, RNGTT / RFU, OGT / Fold change vs veh, OGT / RFU, BRD1 / Fold change vs veh, BRD1 / RFU, MARS / Fold change vs veh, MARS / RFU, ZNF655 / Fold change vs veh, ZNF655 / RFU, FAHD1 / Fold change vs veh, FAHD1 / RFU, BDP1 / Fold change vs veh, BDP1 / RFU, LRRCC1 / Fold change vs veh, LRRCC1 / RFU, ARID1A / Fold change vs veh, ARID1A / RFU, ZNF146 / Fold change vs veh, ZNF146 / RFU, ZNF330 / Fold change vs veh, ZNF330 / RFU, GPN3 / Fold change vs veh, GPN3 / RFU, C9orf123 / Fold change vs veh, C9orf123 / RFU, N4BP2L2 / Fold change vs veh, N4BP2L2 / RFU, ARFIP1 / Fold change vs veh, ARFIP1 / RFU, FAM179B / Fold change vs veh, FAM179B / RFU, BCL10 / Fold change vs veh, BCL10 / RFU, UHRF1BP1L / Fold change vs veh, UHRF1BP1L / RFU, BET1 / Fold change vs veh, BET1 / RFU, CNOT2 / Fold change vs veh, CNOT2 / RFU, ZNF268 / Fold change vs veh, ZNF268 / Fold change vs veh, ZNF507 / RFU, DGCR2 / Fold change vs veh, DGCR2 / RFU, WDSUB1 / Fold change vs veh, WDSUB1 / Fold change vs veh, HSP90B1 /// MIR3652 / RFU, ADSS / Fold change vs veh, ADSS / RFU, GK / Fold change vs veh, GK / RFU, ZNF148 / Fold change vs veh, ZNF148 / RFU, TAF9 / Fold change vs veh, TAF9 / RFU, SLC1A5 / Fold change vs veh, SLC1A5 / RFU, SLMO2 / Fold change vs veh, SLMO2 / RFU, ABCC4 / Fold change vs veh, ABCC4 / RFU, LOC101060439 /// RAP1B / Fold change vs veh, LOC101060439 /// RAP1B / RFU, RFX7 / Fold change vs veh, RFX7 / RFU, GTPBP10 / Fold change vs veh, GTPBP10 / RFU, CNEP1R1 / Fold change vs veh, CNEP1R1 / RFU, BIVM-ERCC5 /// ERCC5 / Fold change vs veh, BIVM-ERCC5 /// ERCC5 / RFU, ILF3 / Fold change vs veh, ILF3 / RFU 11762660_at / Fold change /veh 11762660_at / RFU VCAN (11757783_s_at) / Fold change /veh VCAN (11757783_s_at) / RFU DDX43 (11728927_at) / Fold change /veh DDX43 (11728927_at) / RFU KRT8 (11758188_x_at) / Fold change /veh KRT8 (11758188_x_at) / RFU NKD1 (11759106_at) / Fold change /veh NKD1 (11759106_at) / RFU SRD5A1 (11742802_a_at) / Fold change /veh SRD5A1 (11742802_a_at) / RFU TPSAB1 /// TPSB2 (11721975_s_at) / Fold change /veh TPSAB1 /// TPSB2 (11721975_s_at) / RFU GSTM3 (11746129_a_at) / Fold change /veh GSTM3 (11746129_a_at) / RFU IL23R (11737362_x_at) / Fold change /veh IL23R (11737362_x_at) / RFU TMEM51 (11727254_a_at) / Fold change /veh TMEM51 (11727254_a_at) / RFU PIWIL2 (11732686_x_at) / Fold change /veh PIWIL2 (11732686_x_at) / RFU ORM1 (11744905_x_at) / Fold change /veh ORM1 (11744905_x_at) / RFU CCDC152 (11743942_at) / Fold change /veh CCDC152 (11743942_at) / RFU ECM1 (11717891_a_at) / Fold change /veh ECM1 (11717891_a_at) / RFU IL23R (11748794_a_at) / Fold change /veh IL23R (11748794_a_at) / RFU TNFAIP8L3 (11732012_x_at) / Fold change /veh TNFAIP8L3 (11732012_x_at) / RFU MBOAT4 (11741988_at) / Fold change /veh MBOAT4 (11741988_at) / RFU 11764193_at / Fold change /veh 11764193_at / RFU TMEM53 (11763286_at) / Fold change /veh TMEM53 (11763286_at) / RFU MAGEB2 (11727129_at) / Fold change /veh MAGEB2 (11727129_at) / RFU TMEM200A (11744735_a_at) / Fold change /veh TMEM200A (11744735_a_at) / RFU CCDC152 (11751479_a_at) / Fold change /veh CCDC152 (11751479_a_at) / RFU FAM211A (11726209_a_at) / Fold change /veh FAM211A (11726209_a_at) / RFU RGS16 (11746705_a_at) / Fold change /veh RGS16 (11746705_a_at) / RFU VCAN (11755009_s_at) / Fold change /veh VCAN (11755009_s_at) / RFU RHOB (11743442_s_at) / Fold change /veh RHOB (11743442_s_at) / RFU RGS16 (11720943_a_at) / Fold change /veh RGS16 (11720943_a_at) / RFU RGS16 (11720944_at) / Fold change /veh RGS16 (11720944_at) / RFU, VPS4B / Fold change vs veh, VPS4B / RFU, CREB1 / Fold change vs veh, CREB1 / RFU, DNAJC13 / Fold change vs veh, DNAJC13 / RFU, GNAQ / Fold change vs veh, GNAQ / RFU, CDK5R1 / Fold change vs veh, CDK5R1 / RFU, ZRANB3 / Fold change vs veh, ZRANB3 / RFU, CUL4A / Fold change vs veh, CUL4A / RFU, CCNY / Fold change vs veh, CCNY / RFU, UFL1 / Fold change vs veh, UFL1 / RFU, COG3 / Fold change vs veh, COG3 / RFU, DIAPH2 / Fold change vs veh, DIAPH2 / RFU, SKA2 / Fold change vs veh, SKA2 / RFU, AFF3 / Fold change vs veh, AFF3 / RFU, LMF1 / Fold change vs veh, LMF1 / RFU, IPO11 / Fold change vs veh, IPO11 / RFU, DFFB / Fold change vs veh, DFFB / RFU, FOXP1 / Fold change vs veh, FOXP1 / RFU, CARD8 / Fold change vs veh, CARD8 / RFU, STRN3 / Fold change vs veh, STRN3 / RFU, ADK / Fold change vs veh, ADK / RFU, RASSF2 / Fold change vs veh, RASSF2 / RFU, WIPF1 / Fold change vs veh, WIPF1 / RFU, LARP1B / Fold change vs veh, LARP1B / RFU, RASA1 / Fold change vs veh, RASA1 / RFU, RB1 / Fold change vs veh, RB1 / RFU, PPFIA1 / Fold change vs veh, PPFIA1 / RFU, MAT2A / Fold change vs veh, MAT2A / RFU, CCT5 / Fold change vs veh, CCT5 / RFU, WDR92 / Fold change vs veh, WDR92 / RFU, CUX1 / Fold change vs veh, CUX1 / RFU, TTC7A / Fold change vs veh, TTC7A / RFU, TMEM135 / Fold change vs veh, TMEM135 / RFU, DEPTOR / Fold change vs veh, DEPTOR / RFU, CPM / Fold change vs veh, CPM / RFU, DNAJB6 / Fold change vs veh, DNAJB6 / RFU, CACNA2D3 / Fold change vs veh, CACNA2D3 / RFU, DTX4 / Fold change vs veh, DTX4 / RFU, TFCP2 / Fold change vs veh, TFCP2 / RFU, GMCL1 /// GMCL1P1 / Fold change vs veh, GMCL1 /// GMCL1P1 / RFU, AEBP2 / Fold change vs veh, AEBP2 / RFU, SNHG1 /// SNORD22 /// SNORD25 /// SNORD26 /// SNORD27 /// SNORD28 /// SNORD29 /// SNORD31 / Fold change vs veh, SNHG1 /// SNORD22 /// SNORD25 /// SNORD26 /// SNORD27 /// SNORD28 /// SNORD29 /// SNORD31 / Fold change (Aza/veh), C12orf56 (ProbeSet 11735607_a_at) / Fold change (ACY-1035/veh), C12orf56 (ProbeSet 11735607_a_at) / Fold change (Aza/veh), FGFR1OP (ProbeSet 11751329_s_at) / Fold change (ACY-1035/veh), FGFR1OP (ProbeSet 11751329_s_at) / Fold change (Aza/veh), VPS36 (ProbeSet 11739960_a_at) / Fold change (ACY-1035/veh), VPS36 (ProbeSet 11739960_a_at) / RFU SYPL1 (11715823_x_at) / Fold change /veh SYPL1 (11715823_x_at) / RFU IGFBP7 (11715501_s_at) / Fold change /veh IGFBP7 (11715501_s_at) / RFU REEP3 (11722064_at) / Fold change /veh REEP3 (11722064_at) / RFU IGLL1 (11728026_x_at) / Fold change /veh IGLL1 (11728026_x_at): dose or concentration left out as unconfirmed
Conditions: ProbeSet 11750457_a_at; LIST B

## Nc1ccc(-c2cccs2)cc1NC(=O)c1ccc2c(c1)cc(C1CC1)n2CCN1CCOCC1 [ACY-1035]
  Fold change vs veh, GTPBP10: 0.84

— publication PMC5218480 (PLoS ONE, 2017)
